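Grown in 96-well plates, cells were treated for 48 hours with each compound at five concentrations. Insufficient inhibition: endpoint recorded as highest concentration tested. GI50 is the concentration that inhibits growth by half.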 Activity calls are given as the source filed them. No stated cut-off is given here; in the data, active = GI50 up to about 1.1 µM and inactive = higher.
What was measured:
Experiment in all cases: NCI tumour cell line growth inhibition, 48 h
T47D = test system: T47D
TK-10 = test system: TK-10
EKVX = test system: EKVX
OVCAR-4 = test system: OVCAR-4
UACC-257 = test system: UACC-257
MOLT-4 = test system: MOLT-4
HOP-62 = test system: HOP-62
SW-620 = test system: SW-620
M14 = test system: M14
IGROV-1 = test system: IGROV-1
KM12 = test system: KM12
OVCAR-5 = test system: OVCAR-5
NCI-H226 = test system: NCI-H226
SNB-19 = test system: SNB-19
HCC 2998 = test system: HCC 2998
A498 = test system: A498
SF-295 = test system: SF-295
CAKI-1 = test system: CAKI-1
MCF7 = test system: MCF7
NCI/ADR-RES = test system: NCI/ADR-RES
SNB-75 = test system: SNB-75
SN12C = test system: SN12C
HT-29 = test system: HT-29
MDA-MB-231 = test system: MDA-MB-231
SK-MEL-5 = test system: SK-MEL-5
NCI-H23 = test system: NCI-H23
Malme-3M = test system: Malme-3M
HOP-92 = test system: HOP-92
SK-MEL-2 = test system: SK-MEL-2
MDA-N = test system: MDA-N
SK-MEL-28 = test system: SK-MEL-28
NCI-H460 = test system: NCI-H460
SK-OV-3 = test system: SK-OV-3
BT-549 = test system: BT-549
LOX IMVI = test system: LOX IMVI
DU-145 = test system: DU-145
OVCAR-3 = test system: OVCAR-3
HCT-15 = test system: HCT-15
HCT-116 = test system: HCT-116
HL-60 = test system: HL-60
RPMI-8226 = test system: RPMI-8226
U-251 = test system: U-251
OVCAR-8 = test system: OVCAR-8
SR = test system: SR
NCI-H522 = test system: NCI-H522
ACHN = test system: ACHN
PC-3 = test system: PC-3
786-0 = test system: 786-0
RXF 393 = test system: RXF 393
CCRF-CEM = test system: CCRF-CEM
UO-31 = test system: UO-31
COLO 205 = test system: COLO 205
MDA-MB-435 = test system: MDA-MB-435
UACC-62 = test system: UACC-62
K562 = test system: K562
A549 = test system: A549
SF-268 = test system: SF-268
Hs-578T = test system: Hs-578T

CC[C@]1(Cc2ccc(OC)c(OC)c2)C2CC(C(=O)OC)ON2O[C@H](OCc2ccccc2)[C@@H]1OC(C)=O (stereo partly drawn)
GI50 (T47D): 47 µM (inactive)
GI50 (TK-10): > 100 µM (inactive)
GI50 (EKVX): > 100 µM (inactive)
GI50 (OVCAR-4): > 100 µM (inactive)
GI50 (UACC-257): > 100 µM (inactive)
GI50 (MOLT-4): > 100 µM (inactive)
GI50 (HOP-62): > 100 µM (inactive)
GI50 (SW-620): > 100 µM (inactive)
GI50 (M14): > 100 µM (inactive)
GI50 (IGROV-1): 42.4 µM (inactive)
GI50 (KM12): > 100 µM (inactive)
GI50 (OVCAR-5): > 100 µM (inactive)
GI50 (NCI-H226): > 100 µM (inactive)
GI50 (SNB-19): > 100 µM (inactive)
GI50 (HCC 2998): 39.2 µM (inactive)
GI50 (A498): > 100 µM (inactive)
GI50 (SF-295): > 100 µM (inactive)
GI50 (CAKI-1): > 100 µM (inactive)
GI50 (MCF7): > 100 µM (inactive)
GI50 (NCI/ADR-RES): > 100 µM (inactive)
GI50 (SNB-75): > 100 µM (inactive)
GI50 (SN12C): > 100 µM (inactive)
GI50 (HT-29): > 100 µM (inactive)
GI50 (MDA-MB-231): > 100 µM (inactive)
GI50 (SK-MEL-5): > 100 µM (inactive)
GI50 (NCI-H23): > 100 µM (inactive)
GI50 (Malme-3M): > 100 µM (inactive)
GI50 (HOP-92): 99.3 µM (inactive)
GI50 (SK-MEL-2): > 100 µM (inactive)
GI50 (MDA-N): > 100 µM (inactive)
GI50 (SK-MEL-28): > 100 µM (inactive)
GI50 (NCI-H460): > 100 µM (inactive)
GI50 (SK-OV-3): > 100 µM (inactive)
GI50 (BT-549): > 100 µM (inactive)
GI50 (LOX IMVI): > 100 µM (inactive)
GI50 (DU-145): > 100 µM (inactive)
GI50 (OVCAR-3): > 100 µM (inactive)
GI50 (HCT-15): > 100000 nM
GI50 (HCT-116): > 100 µM (inactive)
GI50 (HL-60): 26.1 µM (inactive)
GI50 (RPMI-8226): 98.6 µM (inactive)
GI50 (U-251): > 100 µM (inactive)
GI50 (OVCAR-8): > 100 µM (inactive)
GI50 (SR): > 100 µM (inactive)
GI50 (NCI-H522): > 100 µM (inactive)
GI50 (ACHN): > 100 µM (inactive)
GI50 (PC-3): > 100 µM (inactive)
GI50 (786-0): > 100 µM (inactive)
GI50 (RXF 393): > 100 µM (inactive)
GI50 (CCRF-CEM): > 100 µM (inactive)
GI50 (UO-31): > 100 µM (inactive)
GI50 (COLO 205): > 100 µM (inactive)
GI50 (MDA-MB-435): > 100 µM (inactive)
GI50 (UACC-62): > 100 µM (inactive)
GI50 (K562): > 100 µM (inactive)
GI50 (A549): > 100 µM (inactive)

CCCCCC(=O)N[C@@H](c1ccco1)[C@@H](O)C(=O)O[C@H]1C[C@@]2(O)[C@@H](OC(=O)c3ccccc3)[C@@H]3[C@]4(OC(C)=O)CO[C@@H]4C[C@H](O)[C@@]3(C)C(=O)[C@H](OC(C)=O)C(=C1C)C2(C)C
GI50 (TK-10): 0.0908 µM (active)
GI50 (EKVX): > 25 µM (inactive)
GI50 (OVCAR-4): 4.32 µM (inactive)
GI50 (MOLT-4): < 0.0025 µM (active)
GI50 (HOP-62): < 0.0025 µM (active)
GI50 (KM12): < 0.0025 µM (active)
GI50 (SNB-19): < 0.0025 µM (active)
GI50 (HCC 2998): < 0.0025 µM (active)
GI50 (MCF7): < 0.0025 µM (active)
GI50 (NCI/ADR-RES): 1.75 µM (inactive)
GI50 (SF-268): < 2.5 nM (active)
GI50 (HT-29): < 0.0025 µM (active)
GI50 (SK-MEL-5): 0.025 µM (active)
GI50 (NCI-H23): < 0.0025 µM (active)
GI50 (HOP-92): < 0.0025 µM (active)
GI50 (MDA-N): < 0.0025 µM (active)
GI50 (NCI-H460): < 0.0025 µM (active)
GI50 (Hs-578T): < 2.5 nM (active)
GI50 (SK-OV-3): < 0.0025 µM (active)
GI50 (HCT-15): 29.5 nM
GI50 (HCT-116): < 0.0025 µM (active)
GI50 (RPMI-8226): < 0.0025 µM (active)
GI50 (U-251): < 0.0025 µM (active)
GI50 (OVCAR-8): < 0.0025 µM (active)
GI50 (SR): < 0.0025 µM (active)
GI50 (NCI-H522): < 0.0025 µM (active)
GI50 (ACHN): 0.0406 µM (active)
GI50 (RXF 393): < 0.0025 µM (active)
GI50 (CCRF-CEM): < 0.0025 µM (active)
GI50 (UO-31): 0.0575 µM (active)
GI50 (COLO 205): < 0.0025 µM (active)
GI50 (MDA-MB-435): < 0.0025 µM (active)

Reference: ChEMBL document CHEMBL1201862, “PubChem BioAssay data set” (2004)
